# “And” between values parts separate entries of the source, which are not always exact repeats. Equal values may be shown once.
# Test system: genes involved in longevity (Array 1)
# Assay: Custom RT-PCR microarray (Array 1) gene expression in skin fibroblasts, UVB/UVA1
# Assay type: cell-based, human
# Protocol: Seeding of cells: On Day 1, each cell culture was seeded into 6 well cluster dishes at ˜1.5×10^5 cells in 4 mls medium per well. Three wells were seeded per test condition or control.
# Experimental phase: On Day 3, wells were washed 1× with 2 mls medium, fed back 2 mls medium without fetal bovine serum and preincubated for 30-60 minutes before challenge with test or control conditions. After the preincubation, medium was aspirated from the wells and 2.5 mls of test or control condition in medium with 1% fetal bovine serum was pipetted into the appropriate wells.
# (3) UVA1, UVB exposed and unexposed cells without test condition were used as controls. The experimental phase ended at 24 hours post UV exposure. Cells from each test and control parameter were then prepped for RNA isolation as described below.
# UVB/UVA1 exposure: Cells exposed to UV received 200 mJ/cm^2 UVB/1 MED UVA1 using Thermo Oriel solar simulator model SP66923-3056. Cells were exposed from the bottom of the culture dish. The UV dose delivered to the cells was adjusted for interference from the plastic in the culture dish.
# Preparation of RNA: The RNA was isolated using the Qiagen RNEasy Plus Mini Kit according to the manufacturer's protocol which can be found on the World Wilde Web at qiagen.com/literature/Defaultaspx?Term=&Language=EN&LiteratureType=4& ProductCategory=10162. The RNA was quantified and examined for purity using the 260/280 nm read method in a μ Quant spectrophotometer before use in the array.
# Creation and Performance of a Custom Microarray (“Array 1”): Through the Custom Array design service of Superarray Bioscience Corporation, a 96 well RT-PCR microarray (“Array 1”) was developed to illustrate genetic responses in cells treated as above for specific genes involved in longevity as well as the relevant quality controls. The array was performed in compliance with manufacturer's guidelines and by recommended manufacturer's protocol as can be found on the World Wilde Web at superarray.com/Manual/perarrayplate.pdf
# Custom Microarray Results: The results from the microarrays were determined using the delta CT method which uses comparisons of control genes and threshold cycles of genes of interest to generate relative expression values. The full set of experimental conditions was cross referenced and the data is provided herewith in DATA TABLE 3.
# Preparation of RNA: The RNA was isolated using the Qiagen RNEasy Plus Mini Kit according to the manufacturer's protocol which can be found on the World Wide Web at qiagen.com/literature/Default. aspx?Term=&Language=EN&LiteratureType=4&ProductCategory=10162.
# The RNA was quantified and examined for purity using the 260/280 nm read method in a μ Quant spectrophotometer before use in the array.
# Creation and Performance of the Custom Microarray: Through the Custom Array design service of Superarray Bioscience Corporation, a 96 well RT-PCR Microarray was developed to illustrate genetic responses in cells treated as above for specific genes involved in longevity as well as the relevant quality controls. The array was performed in compliance with manufacturer's guidelines and by recommended manufacturer's protocol as can be found on the World Wide Web at superarray.com/Manual/perarrayplate.pdf.
# Custom Microarray Results: The results from the microarrays were determined using the delta CT method which uses comparisons of control genes and threshold cycles of genes of interest to generate relative expression values. The full set of experimental conditions was cross referenced and the data is provided herewith in DATA TABLE 4.
# Custom Microarray Results: The results from the microarrays were determined using the delta CT method which uses comparisons of control genes and threshold cycles of genes of interest to generate relative expression values. The full set of experimental conditions was cross referenced and the data is provided herewith in DATA TABLE 5. […]
# [1] = donor four cell line, UVB, agent 4 hr incubation
# [2] = donor four cell line, UVB, agent continuous incubation
# [3] = donor three idebenone + UVB 4 hr Incubation
# [4] = donor three idebenone + UVB Continuous Incubation
# [5] = donor three idebenone + UVB vs. Green tea + UVB 4 hr Incubation
# [6] = donor three vs. donor two idebenone + UVB 4 hr Incubation
# [7] = donor three vs. donor two idebenone + UVB Continuous Incubation
structure (smiles),measurement,setting,value
"COC1=C(OC)C(=O)C(CCCCCCCCCCO)=C(C)C1=O [Idebenone, 6-(10-hydroxydecyl)-2,3-dimethoxy-5-methyl-1,4-benzoquin-one]",IFI44 expression,[1],2.63
same,NADSYN1 expression,[1],2.21
same,NFKB1 expression,[1],3.24
same,PARP1 Expression,[1],4.27
same,TERT expression,[1],8.54
same,IFI44 expression,[2],2.98
same,TERT expression,[2],4.36
same,TERT expression,"donor one cell line, UVB, agent continuous incubation",8.50
same,ACE expression fold change,[3],2.29
same,ACTB expression fold change,[3],−2.01
same,APOE expression fold change,[3],−1.32
same,BAX expression fold change,[3],1.41
same,BCL2 expression fold change,[3],4.13
same,CASP2 expression fold change,[3],1.31
same,CASP9 expression fold change,[3],2.06
same,CCL4L1 expression fold change,[3],9.82
same,CLK1 expression fold change,[3],1.41
same,COX1 expression fold change,[3],−1.11
same,CREBBP expression fold change,[3],−1.32
same,CYP19A1 expression fold change,[3],6.94
same,DDC expression fold change,[3],4.74
same,GAPDH expression fold change,[3],−1.04
same,GH1 expression fold change,[3],3.35
same,HIGX1A fold change,[3],1.93
same,HLA-DRA expression fold change,[3],4.27
same,HPRT1 expression fold change,[3],3.47
same,HSPA1A expression fold change,[3],1.68
same,HSPA1B expression fold change,[3],1.99
same,HSPA1L expression fold change,[3],−1.42
same,IFI44 expression fold change,[3],2.63
same,IGF1 expression fold change,[3],4.13
same,IGF2 expression fold change,[3],−1.24
same,IL1A expression fold change,[3],2.54
same,IL6 expression fold change,[3],1.27
same,IL10 expression fold change,[3],1.46
same,KRAS expression fold change,[3],1.27
same,MAPK14 expression fold change,[3],1.46
same,NADSYN1 expression fold change,[3],2.21
same,NFKB1 expression fold change,[3],3.24
same,NOS2A expression fold change,[3],16.51
same,PARP1 expression fold change,[3],4.27
same,PARP2 expression fold change,[3],3.72
same,PPARG expression fold change,[3],1.99
same,PPC fold change,[3],1.07 and 1.23
same,PTGS2 expression fold change,[3],2.63
same,RTC fold change,[3],3.13 and 4.74
same,SHC1 expression fold change,[3],1.19
same,SIRT1 expression fold change,[3],1.41
same,SOD1 expression fold change,[3],1.41
same,SOD2 expression fold change,[3],1.07
same,TEP1 expression fold change,[3],1.23
same,TERT expression fold change,[3],8.54
same,TNF expression fold change,[3],−1.19
same,TP53 expression fold change,[3],−1.15
same,ACE expression fold change,[4],2.34
same,ACTB expression fold change,[4],−3.93
same,APOE expression fold change,[4],1.49
same,BAX expression fold change,[4],2.26
same,BCL2 expression fold change,[4],7.09
same,CASP2 expression fold change,[4],1.09
same,CASP9 expression fold change,[4],5.19
same,CCL4L1 expression fold change,[4],10.02
same,CLK1 expression fold change,[4],1.71
same,COX1 expression fold change,[4],1.05
same,CREBBP expression fold change,[4],−1.21
same,CYP19A1 expression fold change,[4],5.56
same,DDC expression fold change,[4],4.84
same,GAPDH expression fold change,[4],−1.83
same,GH1 expression fold change,[4],2.18
same,HIGX1A fold change,[4],1.71
same,HLA-DRA expression fold change,[4],3.93
same,HPRT1 expression fold change,[4],1.83
same,HSPA1A expression fold change,[4],1.34
same,HSPA1B expression fold change,[4],1.71
same,HSPA1L expression fold change,[4],−5.37
same,IFI44 expression fold change,[4],2.98
same,IGF1 expression fold change,[4],3.42
same,IGF2 expression fold change,[4],−1.09
same,IL1A expression fold change,[4],1.97
same,IL6 expression fold change,[4],−1.83
same,IL10 expression fold change,[4],1.13
same,KRAS expression fold change,[4],1.90
same,MAPK14 expression fold change,[4],1.65
same,NADSYN1 expression fold change,[4],1.44
same,NFKB1 expression fold change,[4],2.34
same,NOS2A expression fold change,[4],3.80
same,PARP1 expression fold change,[4],1.65
same,PARP2 expression fold change,[4],3.42
same,PPARG expression fold change,[4],3.19
same,PPC fold change,[4],1.25 and 1.21
same,PTGS2 expression fold change,[4],1.83
same,SHC1 expression fold change,[4],−1.49
same,SIRT1 expression fold change,[4],1.77
same,SOD1 expression fold change,[4],−1.71
same,SOD2 expression fold change,[4],1.17
same,TEP1 expression fold change,[4],1.13
same,TERT expression fold change,[4],4.36
same,TNF expression fold change,[4],−1.09
same,TP53 expression fold change,[4],1.21
same,ACE expression fold change,[5],−1.11
same,ACTB expression fold change,[5],−1.57
same,APOE expression fold change,[5],1.41
same,BAX expression fold change,[5],−2.23
same,BCL2 expression fold change,[5],−1.15
same,CASP2 expression fold change,[5],−2.47
same,CASP9 expression fold change,[5],−1.94
same,CCL4L1 expression fold change,[5],9.48
same,CLK1 expression fold change,[5],−1.11
same,COX1 expression fold change,[5],−1.81
same,CREBBP expression fold change,[5],−1.00
same,CYP19A1 expression fold change,[5],9.48
same,DDC expression fold change,[5],42.08
same,GAPDH expression fold change,[5],−1.57
same,GH1 expression fold change,[5],16.51
same,HIGX1A fold change,[5],17.09
same,HLA-DRA expression fold change,[5],18.96
same,HPRT1 expression fold change,[5],1.41
same,HSPA1A expression fold change,[5],−1.87
same,HSPA1B expression fold change,[5],−2.08
same,HSPA1L expression fold change,[5],1.80
same,IFI44 expression fold change,[5],−1.28
same,IGF1 expression fold change,[5],8.85
same,IGF2 expression fold change,[5],−1.15
same,IL1A expression fold change,[5],7.70
same,IL6 expression fold change,[5],−1.04
same,IL10 expression fold change,[5],4.74
same,KRAS expression fold change,[5],−1.69
same,MAPK14 expression fold change,[5],−1.63
same,NADSYN1 expression fold change,[5],−1.63
same,NFKB1 expression fold change,[5],−1.04
same,NOS2A expression fold change,[5],34.18
same,PARP1 expression fold change,[5],−1.57
same,PARP2 expression fold change,[5],7.44
same,PPARG expression fold change,[5],1.74
same,PTGS2 expression fold change,[5],2.14
same,SHC1 expression fold change,[5],−1.11
same,SIRT1 expression fold change,[5],−1.15
same,SOD1 expression fold change,[5],−1.32
same,SOD2 expression fold change,[5],−1.24
same,TEP1 expression fold change,[5],−1.00
same,TERT expression fold change,[5],7.97
same,TNF expression fold change,[5],7.44
same,TP53 expression fold change,[5],−1.32
same,ACE expression fold change,[6],1.16
same,ACTB expression fold change,[6],1.43
same,APOE expression fold change,[6],−1.06
same,BAX expression fold change,[6],1.95
same,BCL2 expression fold change,[6],1.76
same,CASP2 expression fold change,[6],1.33
same,CASP9 expression fold change,[6],1.58
same,CCL4L1 expression fold change,[6],1.08
same,CLK1 expression fold change,[6],−1.22
same,COX1 expression fold change,[6],1.12
same,CREBBP expression fold change,[6],1.70
same,CYP19A1 expression fold change,[6],1.01
same,DDC expression fold change,[6],1.08
same,GAPDH expression fold change,[6],1.16
same,GH1 expression fold change,[6],−1.06
same,HIGX1A fold change,[6],−1.50
same,HLA-DRA expression fold change,[6],1.38
same,HPRT1 expression fold change,[6],1.38
same,HSPA1A expression fold change,[6],2.16
same,HSPA1B expression fold change,[6],2.32
same,HSPA1L expression fold change,[6],−1.14
same,IFI44 expression fold change,[6],1.53
same,IGF1 expression fold change,[6],−1.79
same,IGF2 expression fold change,[6],−1.03
same,IL1A expression fold change,[6],−1.40
same,IL6 expression fold change,[6],−6.01
same,IL10 expression fold change,[6],1.76
same,KRAS expression fold change,[6],1.76
same,MAPK14 expression fold change,[6],1.48
same,NADSYN1 expression fold change,[6],1.08
same,NFKB1 expression fold change,[6],1.01
same,NOS2A expression fold change,[6],−1.56
same,PARP1 expression fold change,[6],2.32
same,PARP2 expression fold change,[6],1.16
same,PPARG expression fold change,[6],1.29
same,PTGS2 expression fold change,[6],2.95
same,SHC1 expression fold change,[6],1.20
same,SIRT1 expression fold change,[6],1.53
same,SOD1 expression fold change,[6],1.24
same,SOD2 expression fold change,[6],−1.35
same,TEP1 expression fold change,[6],1.76
same,TERT expression fold change,[6],−1.14
same,TNF expression fold change,[6],1.95
same,TP53 expression fold change,[6],−1.31
same,ACE expression fold change,[7],1.40
same,ACTB expression fold change,[7],4.88
same,APOE expression fold change,[7],−2.48
same,BAX expression fold change,[7],−1.64
same,BCL2 expression fold change,[7],−1.53
same,CASP2 expression fold change,[7],−1.38
same,CASP9 expression fold change,[7],−1.88
same,CCL4L1 expression fold change,[7],−2.09
same,CLK1 expression fold change,[7],−1.04
same,COX1 expression fold change,[7],−2.32
same,CREBBP expression fold change,[7],1.14
same,CYP19A1 expression fold change,[7],−2.48
same,DDC expression fold change,[7],−1.58
same,GAPDH expression fold change,[7],2.13
same,GH1 expression fold change,[7],1.40
same,HIGX1A fold change,[7],−2.16
same,HLA-DRA expression fold change,[7],1.31
same,HPRT1 expression fold change,[7],2.20

# — patent US20140079836A1, “METHODS AND COMPOSITIONS FOR ALTERING HEALTH, WELLBEING, AND LIFESPAN” (LifeSpan Extension, LLC, priority 2008, published 2014)
